The values that follow come from publication PMC12009420, “Dynamically chiral phosphonic acid-type metallo-β-lactamase inhibitors” (Communications Chemistry, 2025).

Read-outs that look alike come from different tables or passages of the source.

One series can be described thus: MTT cytotoxicity assay. In kind it is cell-based. To be noted: human, HepG2 cells.
Series [1] can be described thus: Long term stability in buffer with 2.5% DMSO (LC-MS). It is filed as physicochemical. The following applies: 20 mM KPO4, 0.1 mM ZnCl2, pH 7.0 + 2.5% DMSO; LC-MS 254 nm.
For the next series, the target named is T1, 15N-labelled VIM-2 (Escherichia coli, UniProt Q5U7L7).
T1 construct: made in house
As to the kind of experiment: 1H,15N-HSQC titration of VIM-2. It is filed as binding. The following applies: 10 equivalents of compound, 600 MHz, pH 7.0, 25 °C. The procedure:
The ^1H, ^15N-HSQC spectra for the titration experiments were recorded on a Bruker Avance Neo 600 MHz spectrometer equipped with a 5 mm TCI cryogenic probe at 25 °C. The U-[^15N]-labeled VIM-2 was prepared in a buffer of 20 mM KPO4, 0.1 mM ZnCl2, at pH 7.0, containing 85% H2O/15% D2O at a concentration of 0.25 mM. The U-[^15N]-labeled NDM-1 was used in a buffer of 20 mM HEPES, 0.1 mM ZnCl2, at pH 7.0, containing 85% H2O/15% D2O at a concentration of 0.25 mM. The ligands 5d, 5g, 5i, 5j (for VIM-2 titrations) and 5 f (for NDM-1 titration) were dissolved in the same buffer as the corresponding enzymes. Spectra were recorded using solvent suppression, 1024 points in f1, 16 transients, 512 increments in f2 and a relaxation delay of 0.2 s. The titrations were carried out with 0, 0.25, 0.50, 1.00, 1.50, 2.25, 3.00, 4.00, 5.00, 7.00, 10.0 equivalents of the inhibitors.
Figure S47. Superimposition of the 1H,15N-HSQC spectrum (600 MHz, pH 7.0, 25 °C) of
VIM-2 in the absence (blue) and in the presence (green) of 10 molar equivalent of compound
5j. Buffer: 20 mM KPO4, 0.1 mM ZnCl2, with 15% D2O.
Chemical shift perturbation values (CSP, ΔδNH) were calculated as the weighted average of
the chemical shift changes in f1 (ΔδN) and f2 (ΔδH) dimensions using the following equation 8:
∆δ = √∆δ 2 + ( N ); R = 6.5
Figure S48. Linear regression of the chemical shift perturbations of compound 5g (IC50 =
12 μM) as a function of the chemical shift perturbations of compounds 5c (yellow circle), 5d
(grey square), 5i (green triangle) and 5j (blue circle) for VIM-2. The data of the studied […]

Another series addresses GIM-1 (Pseudomonas aeruginosa, UniProt Q704V1). Kind of series: Enzymatic metallo-β-lactamase assay on purified GIM-1. In kind it is biochemical. The following applies: approximated from Dixon plots (1/v vs [I]) at one constant substrate concentration; ± SE; read-out: Estimated inhibition constant Ki GIM-1.

Chain of GIM-1 (Q704V1 entry or part of it): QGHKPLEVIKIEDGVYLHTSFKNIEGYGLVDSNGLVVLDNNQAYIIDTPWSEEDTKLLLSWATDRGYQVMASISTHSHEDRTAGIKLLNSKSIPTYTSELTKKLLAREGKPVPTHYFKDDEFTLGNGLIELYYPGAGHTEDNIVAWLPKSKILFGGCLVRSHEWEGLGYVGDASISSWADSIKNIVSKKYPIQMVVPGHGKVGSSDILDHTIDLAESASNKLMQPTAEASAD

Turning to `O=C(NC(c1ccccc1O)P(=O)(O)O)c1scc2c1CCCC2` (stereo not drawn) [5g], the 50% cytotoxic concentration (CC50) at 24 h in the series “MTT cytotoxicity assay” (HepG2, MTT, read-out: CC50 (in viability curve)) came out at 1400 µM. Further, the half-maximal cytotoxic concentration (CC50) at 24 h in the series “MTT cytotoxicity assay” (MTT, 0.0025 mM - 1mM concentration range, read-out: Cytotoxicity CC50 HepG2) came to 1420 µM. Besides, in series [1], the “main peak Area% kept in buffer for 1 month” value turned out to be 98.05% and the “main peak Area% right after dissolving in buffer” value was 98.21%. The “Mean chemical shift perturbation, VIM-2” value on 15N-labelled VIM-2 is reported as 0.04 ppm. Moreover, on GIM-1, the inhibition constant (Ki) was 113 ± 66 µM.

The CC50 is the concentration at which the toxic effect on the cells reaches its halfway point. As a reminder, the Ki is a dissociation constant, usually derived from enzyme kinetics or from competition with a known ligand.
